Our source for the IC50 values is patent US20240124422A1, “MUTANT PI3K-ALPHA INHIBITORS AND THEIR USE AS PHARMACEUTICALS” (Prelude Therapeutics Incorporated, priority 2022, published 2024).

One may read the IC50 as the concentration that inhibits the measured activity by half.

One test deals with phosphorylation of AKT on Ser473 as a readout of the PI3K pathway in T-47D (heterozygous PIK3CA H1047R) cells. As to the kind of experiment: PI3K pathway activation assay, pAKT Ser473 HTRF, T-47D cells. Format: cell-based. Conditions: Homo sapiens, T47D, 2 h, two hours of treatment. As for the experimental part:
The inhibitory activity of compounds was evaluated by measuring phosphorylation of AKT on Ser473 as a readout of the PI3K pathway using HTRF (CisBio catalog number: 64AKSPE). These studies were conducted in the T-47D (heterozygous PIK3CA H1047R) and SKBR3 (PIK3CA WT) cell lines. Cells were maintained in a 37° C. incubator at 5% CO2 in the following media: T-47D: RPMI 1640, ATCC© Modification (Gibco, A10491-01) supplemented with 10% v/v FBS (Gibco, 26140-079), 1% penicillin streptomycin (Gibco, 15140-122), and 7.4 ug/mL insulin (MilliporeSigma, I9278); SKBR3: McCoy's 5a (Modified) Medium (Gibco, 16600-082) supplemented with 10% v/v FBS (Gibco, 26140-079). Cells were seeded in 384-well plates at a density of 4,000 cells/well. Compounds dissolved in DMSO were added using a digital dispense (D300E, Tecan) 10-point serial dilution. After two hours of treatment, cells were lysed for thirty minutes and then incubated with detection reagents per HTRF kit material and manufacturer's instructions. Fluorescence signal was measured with a multimode plate reader (Envision 2105, Perkin Elmer). Fluorescent signal was normalized to background and DMSO controls to obtain percent inhibition/activity for each compound.
On the technique in general: TR-FRET usually uses a lanthanide donor and a delayed reading to cut background.
As for `Cc1cc(C(C)Nc2ccccc2C(=O)O)c2nc(N3CCC(F)(F)CC3)n(C)c(=O)c2c1` (single isomer, unassigned) [Example 37, 2-((1-(2-(4,4-difluoropiperidin-1-yl)-3,6-dimethyl-4-oxo-3,4-dihydroquinazolin-8-yl)ethyl)amino)benzoic acid], the IC50 was less than 500 nM.
Compound `Cc1cc(C(C)Nc2ccccc2C(=O)O)c2nc(N3CCC(c4ccccc4)C3)n(C)c(=O)c2c1` (single isomer, unassigned) [Example 52, 2-[1-[3,6-dimethyl-4-oxo-2-(3-phenylpyrrolidin-1-yl)quinazolin-8-yl]ethylamino]benzoic acid] yielded an IC50 of 500 to 10000 nM.
On the same count and under the same terms, as for `Cc1cc(C(C)Nc2ccccc2C(=O)O)c2nc(N3CC4CC4C3)n(C)c(=O)c2c1F` (single isomer, unassigned) [Example 95, 2-((1-(2-(3-Azabicyclo[3.1.0]hexan-3-yl)-5-fluoro-3,6-dimethyl-4-oxo-3,4-dihydroquinazolin-8-yl)ethyl)amino)benzoic acid], the figure is less than 500 nM; as for `CONC(=O)c1ccccc1NC(C)c1cc(C)cc2c(=O)n(C)c(N3Cc4ccccc4C3)nc12` (centres unmarked) [Example 5, 2-((1-(2-(isoindolin-2-yl)-3,6-dimethyl-4-oxo-3,4-dihydroquinazolin-8-yl)ethyl)amino)-N-methoxybenzamide], 500 to 10000 nM.
On the same count and under the same terms, with `Cc1cc(C(C)Nc2ccccc2C(O)C(F)(F)F)c2nc(N3Cc4ccccc4C3)n(C)c(=O)c2c1` (centres unmarked) [Example 12, 2-(isoindolin-2-yl)-3,6-dimethyl-8-(1-((2-(2,2,2-trifluoro-1-hydroxyethyl)phenyl)amino)ethyl)quinazolin-4(3H)-one] the figure was 500 to 10000 nM; with `Cc1cc(C(C)Sc2ccccc2C(=O)O)c2nc(N3Cc4ccccc4C3)n(C)c(=O)c2c1` (centres unmarked) [Example 13, 2-((1-(2-(isoindolin-2-yl)-3,6-dimethyl-4-oxo-3,4-dihydroquinazolin-8-yl)ethyl)thio)benzoic acid], 500 to 10000 nM; with `Cc1cc(C(C)Nc2ccccc2C(=O)O)c2nc(N3CC4CC4C3)n(C)c(=O)c2c1C#N` (centres unmarked) [Example 14, 2-((1-(2-(3-azabicyclo[3.1.0]hexan-3-yl)-5-cyano-3,6-dimethyl-4-oxo-3,4-dihydroquinazolin-8-yl)ethyl)amino)benzoic acid], 500 to 10000 nM.
Still for that read-out and setting: with `CC(Nc1ccccc1C(=O)O)c1cc(C(F)(F)F)cc2c(=O)n(C)c(N3Cc4ccccc4C3)nc12` (centres unmarked) [Example 15, 2-((1-(2-(isoindolin-2-yl)-3-methyl-4-oxo-6-(trifluoromethyl)-3,4-dihydroquinazolin-8-yl)ethyl)amino)benzoic acid] the figure was less than 500 nM; with `CC(Nc1ccccc1C(=O)O)c1cc(C(F)(F)F)cc2c(=O)n(C)c(N3CC4CC4C3)nc12` (centres unmarked) [Example 16, 2-((1-(2-(3-azabicyclo[3.1.0]hexan-3-yl)-3-methyl-4-oxo-6-(trifluoromethyl)-3,4-dihydroquinazolin-8-yl)ethyl)amino)benzoic acid], 500 to 10000 nM.
For the compound `Cc1cc(C(C)Nc2ccccc2C(=O)O)c2nc(N3CCC(C)(C)CC3)n(C)c(=O)c2c1` (centres unmarked) [Example 17, 2-((1-(2-(4,4-dimethylpiperidin-1-yl)-3,6-dimethyl-4-oxo-3,4-dihydroquinazolin-8-yl)ethyl)amino)benzoic acid], the IC50 was less than 500 nM.
`Cc1cc(C(C)Nc2ccccc2C(=O)O)c2nc(N3Cc4ccccc4C3)n(-c3cccnc3)c(=O)c2c1` (centres unmarked) [Example 18, 2-((1-(2-(isoindolin-2-yl)-6-methyl-4-oxo-3-(pyridin-3-yl)-3,4-dihydroquinazolin-8-yl)ethyl)amino)benzoic acid]: the IC50 fell in the range of 500 to 10000 nM.
Same read-out and setting: as for `Cc1cc(C(C)Nc2ccccc2C(=O)O)c2nc(-c3ccn[nH]3)n(C)c(=O)c2c1` (centres unmarked) [Example 25, 2-((1-(3,6-dimethyl-4-oxo-2-(1H-pyrazol-5-yl)-3,4-dihydroquinazolin-8-yl)ethyl)amino)benzoic acid], the figure is 500 to 10000 nM; as for `Cc1cc(C(C)Nc2ccccc2C(=O)O)c2nc(N)n(C)c(=O)c2c1` (centres unmarked) [Example 26, 2-((1-(2-amino-3,6-dimethyl-4-oxo-3,4-dihydroquinazolin-8-yl)ethyl)amino) benzoic acid], 500 to 10000 nM.
Same read-out and setting: with `COc1cccc(NC(C)c2cc(C)cc3c(=O)n(C)c(N4Cc5ccccc5C4)nc23)c1C(=O)O` (centres unmarked) [Example 29, 2-((1-(2-(isoindolin-2-yl)-3,6-dimethyl-4-oxo-3,4-dihydroquinazolin-8-yl)ethyl)amino)-6-methoxybenzoic acid] the figure was 500 to 10000 nM; with `Cc1cc(C(C)Nc2ccc(C(F)(F)F)cc2C(=O)O)c2nc(N3Cc4ccccc4C3)n(C)c(=O)c2c1` (centres unmarked) [Example 30, 2-((1-(2-(isoindolin-2-yl)-3,6-dimethyl-4-oxo-3,4-dihydroquinazolin-8-yl)ethyl)amino)-5-(trifluoromethyl)benzoic acid], 500 to 10000 nM; with `Cc1cc(C(C)Nc2cc(F)ccc2C(=O)O)c2nc(N3Cc4ccccc4C3)n(C)c(=O)c2c1` (centres unmarked) [Example 32, 4-fluoro-2-((1-(2-(isoindolin-2-yl)-3,6-dimethyl-4-oxo-3,4-dihydroquinazolin-8-yl)ethyl)amino)benzoic acid], less than 500 nM.
The same measure, in the same setting: as for `Cc1cc(C(C)Nc2ccc(Cl)cc2C(=O)O)c2nc(N3Cc4ccccc4C3)n(C)c(=O)c2c1` (centres unmarked) [Example 33, 5-chloro-2-((1-(2-(isoindolin-2-yl)-3,6-dimethyl-4-oxo-3,4-dihydroquinazolin-8-yl)ethyl)amino)benzoic acid], the figure is 500 to 10000 nM; as for `Cc1cc(C(C)Nc2ncccc2C(=O)O)c2nc(N3Cc4ccccc4C3)n(C)c(=O)c2c1` (centres unmarked) [Example 36, 2-((1-(2-(isoindolin-2-yl)-3,6-dimethyl-4-oxo-3,4-dihydroquinazolin-8-yl)ethyl)amino)nicotinic acid], 500 to 10000 nM.
Compound `C=CC(=O)Nc1c(C)cc(C(C)Nc2ccccc2C(=O)O)c2nc(N3CC4CC4C3)n(C)c(=O)c12` (centres unmarked) [Example 38, 2-((1-(5-acrylamido-2-(3-azabicyclo[3.1.0]hexan-3-yl)-3,6-dimethyl-4-oxo-3,4-dihydroquinazolin-8-yl)ethyl)amino)benzoic acid] registered an IC50 of 500 to 10000 nM.
On the same count and under the same terms, with `Cc1cc(C(C)Nc2ccccc2C(=O)O)c2nc(O)n(C)c(=O)c2c1` (centres unmarked) [Example 42, 2-((1-(2-hydroxy-3,6-dimethyl-4-oxo-3,4-dihydroquinazolin-8-yl)ethyl)amino) benzoic acid] the figure was 500 to 10000 nM; with `Cc1cc(C(C)Nc2ccccc2C(=O)O)c2nc(N3CCC(C#N)CC3)n(C)c(=O)c2c1` (centres unmarked) [Example 44, 2-((1-(2-(4-cyanopiperidin-1-yl)-3,6-dimethyl-4-oxo-3,4-dihydroquinazolin-8-yl)ethyl)amino)benzoic acid], 500 to 10000 nM; with `Cc1cc(C(C)Nc2c(F)cccc2C(=O)O)c2nc(N3Cc4ccccc4C3)n(C)c(=O)c2c1` (centres unmarked) [Example 45, 3-fluoro-2-((1-(2-(isoindolin-2-yl)-3,6-dimethyl-4-oxo-3,4-dihydroquinazolin-8-yl)ethyl)amino)benzoic acid], 500 to 10000 nM.
Same read-out and setting: as for `Cc1cc(C(Nc2ccccc2C(=O)O)C(F)(F)F)c2nc(N3CC4CC4C3)n(C)c(=O)c2c1` (centres unmarked) [Example 47, 2-[[1-[2-(3-azabicyclo[3.1.0]hexan-3-yl)-3,6-dimethyl-4-oxoquinazolin-8-yl]-2,2,2-trifluoroethyl]amino]benzoic acid], the figure is 500 to 10000 nM.
The same measure, in the same setting: as for `CC(Nc1ccccc1C(=O)O)c1cc(C#N)cc2c(=O)n(C)c(N3Cc4ccccc4C3)nc12` (centres unmarked) [Example 50, 2-((1-(6-cyano-2-(isoindolin-2-yl)-3-methyl-4-oxo-3,4-dihydroquinazolin-8-yl)ethyl)amino)benzoic acid], the figure is 500 to 10000 nM; as for `Cc1cc(C(C)Nc2ccccc2C(=O)O)c2nc(N3CCc4ccccc4C3)n(C)c(=O)c2c1` (centres unmarked) [Example 51, 2-[1-[2-(3,4-dihydro-1H-isoquinolin-2-yl)-3,6-dimethyl-4-oxoquinazolin-8-yl]ethylamino]benzoic acid], 500 to 10000 nM; as for `Cc1cc(C(C)Nc2ccccc2C(=O)O)c2nc(N3CCS(=O)(=O)CC3)n(C)c(=O)c2c1` (centres unmarked) [Example 56, 2-((1-(2-(1,1-dioxidothiomorpholino)-3,6-dimethyl-4-oxo-3,4-dihydroquinazolin-8-yl)ethyl)amino)benzoic acid], 500 to 10000 nM.

Staying with this test, now noted: two hours of treatment, read-out: T47D pAKT IC50.
As for `Cc1cc(C(C)Nc2ccccc2C(=O)O)c2nc(N3CCC(c4ccccc4)C3)n(C)c(=O)c2c1` (single isomer, unassigned) [Example 53, 2-[1-[3,6-dimethyl-4-oxo-2-(3-phenylpyrrolidin-1-yl)quinazolin-8-yl]ethylamino]benzoic acid], the IC50 lay in the range of 500 to 10000 nM.
Same read-out and setting: as for `Cc1cc(C(C)Nc2ccccc2C(=O)O)c2nc(N3CC4CCC3C4)n(C)c(=O)c2c1` (single isomer, unassigned) [Example 101, 2-((1-(2-(2-Azabicyclo[2.2.1]heptan-2-yl)-3,6-dimethyl-4-oxo-3,4-dihydro-quinazolin-8-yl)ethyl)amino)benzoic acid], the figure is 500 to 10000 nM; as for `Cc1cc(C(C)Nc2ccccc2C(=O)O)c2nc(N3CCC(C)(C)CC3)n(C)c(=O)c2c1` (centres unmarked) [Example 3, 2-((1-(2-(4,4-dimethylpiperidin-1-yl)-3,6-dimethyl-4-oxo-3,4-dihydroquinazolin-8-yl)ethyl)amino)benzoic acid], 500 to 10000 nM.
